According to PMC9481026 (PLoS ONE, 2022):
≈ marks a conversion by molar mass, not a printed value. Where “and” joins values, the source holds several entries; their conditions need not be identical. Equal entries are not always repeated. Where two headings read alike, the source gives them in different places.

Columns and labels:
[1] = tested on: RVFV MP-12; experiment: microbe, parasite or virus in culture; type: cell-based, Rift Valley fever virus; conditions: read-out: Estimated EC50
[2] = tested on: LACV; experiment: microbe, parasite or virus in culture; type: cell-based, La Crosse virus; conditions: for EC50: read-out: LACV EC50
[3] = tested on: Vero cells
[4] = tested on: RVFV strain MP-12; experiment: microbe, parasite or virus in culture; type: cell-based, Rift Valley fever virus
[5] = tested on: RVFV ZH501; experiment: microbe, parasite or virus in culture; type: cell-based, Rift Valley fever virus
[6] = tested on: ZIKV; experiment: microbe, parasite or virus in culture; type: cell-based, Zika virus; conditions: for EC50: read-out: ZIKV EC50
[7] = tested on: RVFV strain MP-12; experiment: microbe, parasite or virus in culture; type: cell-based, Rift Valley fever virus; conditions: Rift Valley fever virus, A549, 24 h, read-out: A549 EC50
[8] = in vitro; conditions: African green monkey
[9] = in vitro; conditions: human
[10] = target: T1, Human RNase H1 (Homo sapiens, UniProt O60930); experiment: biochemical
T1 construct: made in house; host or cells: E. coli
T1 sequence (O60930 1-286): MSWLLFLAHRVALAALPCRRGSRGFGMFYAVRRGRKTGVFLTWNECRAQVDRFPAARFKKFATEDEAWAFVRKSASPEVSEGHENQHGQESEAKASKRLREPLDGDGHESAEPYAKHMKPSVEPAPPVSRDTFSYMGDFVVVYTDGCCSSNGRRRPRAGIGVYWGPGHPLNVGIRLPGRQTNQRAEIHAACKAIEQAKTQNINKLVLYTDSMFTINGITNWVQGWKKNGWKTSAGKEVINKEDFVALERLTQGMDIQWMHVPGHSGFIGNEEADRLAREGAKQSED

[11] = tested on: C. neoformans; experiment: microbe, parasite or virus in culture; type: cell-based; conditions: Cryptococcus neoformans, read-out: C. neoformans (MIC80, μM)
[12] = tested on: E. coli; experiment: microbe, parasite or virus in culture; type: cell-based; conditions: Escherichia coli, read-out: E. coli (MIC80, μM)
[13] = tested on: Staphylo-coccus spp.; experiment: organism not typed; type: cell-based; conditions: read-out: Staphylo-coccus spp. (MIC80, μM)
[14] = La Crosse virus, Vero C1008, 24 h
[15] = Rift Valley fever virus, Vero, 24 h
[16] = Rift Valley fever virus, Vero, read-out: Vero EC50

SMILES	LACV EC50 [2]	EC50 [2, 14]	EC50 [4, 15]	EC50 [4, 16]	EC50 [7]	ZIKV EC50 [6]	EC50 ([6]; Zika virus, Vero C1008, 48 h)	CC50 ([8]; Vero CC50)	CC50 [9]	other results
O=c1nc(NO)ccn1[C@@H]1O[C@H](CO)[C@@H](O)[C@H]1O [EIDD-1931, β-D-N4-Hydroxycytidine, reference compound]	–	–	–	–	–	–	–	–	–	EC50 [1]: 5 µM; EC50 [2]: 3.6 µM; CC50 [3]: > 120 µM; EC50 ([4]; read-out: EC50): 5.16 µM and 5.2 µM; EC50 ([5]; read-out: EC50): 30.5 µM; EC50 [6]: 1.7 µM and 1.74 µM
Cc1cc(O)c(=O)c(O)cc1C(=O)c1ccco1 [Compound 309]	activity against LACV	14.6 µM	1.6 µM	1.6 µM	5.9 µM	not the unrelated flavivirus, Zika virus	> 120 µM	> 120 µM	98.1 µM	CC50 ([8]; CC50): > 120 µM
Cc1cc(O)c(=O)c(O)cc1C(=O)c1cccs1 [Compound 308]	activity against LACV	15.1 µM	1.2 µM	1.2 µM	8.4 µM	not the unrelated flavivirus, Zika virus	> 120 µM	> 120 µM	119 µM	IC50 [10]: 46 µM; EC50 ([1]; Rift Valley fever virus, Vero): 1.77 µM; CC50 ([3]; African green monkey): 111 µM; MIC80 [11]: 11 µM (≈ 2.89 µg/mL); MIC80 [12]: 25 µM (≈ 6.56 µg/mL); EC50 ([4]; Rift Valley fever virus, Vero, read-out: RVFV (EC50, μM)): 1.16 µM; EC50 ([5]; Rift Valley fever virus, Vero, 18 h): 54 µM; MIC80 [13]: 44 µM (≈ 11.5 µg/mL)
